Patent publication US8329711B2, “Pyridone-substituted-dihydropyrazolopyrimidinone derivative” (MSD K.K., priority 2007, dated 2012)

Legend:
Wee1 kinase = biological target: T1, Wee1 kinase (Homo sapiens, UniProt P30291); experiment: Wee1 kinase-inhibitory effect (33P-ATP filter assay with GST-tagged Wee1); assay type: biochemical; details: purified GST-Wee1, Poly(Lys,Tyr) substrate, 10 μM ATP, 30° C. for 30 minutes; read-out: Weel-Inhibitory Effect (IC50)
T1 construct: made in house; host or cells: Sf9 insect cells (recombinant baculovirus)
T1 sequence (P30291 whole entry): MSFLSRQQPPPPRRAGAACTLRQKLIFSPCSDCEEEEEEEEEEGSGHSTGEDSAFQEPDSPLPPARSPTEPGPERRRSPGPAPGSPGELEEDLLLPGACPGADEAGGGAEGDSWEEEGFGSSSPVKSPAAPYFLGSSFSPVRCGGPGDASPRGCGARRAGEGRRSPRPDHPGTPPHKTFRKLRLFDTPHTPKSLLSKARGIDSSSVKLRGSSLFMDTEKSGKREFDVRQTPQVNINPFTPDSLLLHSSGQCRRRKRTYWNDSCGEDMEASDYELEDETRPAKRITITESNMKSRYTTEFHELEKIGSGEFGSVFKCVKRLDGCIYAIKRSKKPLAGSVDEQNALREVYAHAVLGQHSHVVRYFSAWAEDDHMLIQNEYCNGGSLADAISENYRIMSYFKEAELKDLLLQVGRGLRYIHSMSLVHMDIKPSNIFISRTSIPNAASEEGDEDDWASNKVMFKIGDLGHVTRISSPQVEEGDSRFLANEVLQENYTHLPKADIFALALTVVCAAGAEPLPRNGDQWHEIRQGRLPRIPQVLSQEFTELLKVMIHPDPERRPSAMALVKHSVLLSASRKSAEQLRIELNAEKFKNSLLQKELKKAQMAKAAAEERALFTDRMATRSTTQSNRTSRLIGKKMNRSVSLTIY
Source text: Pharmacological Test 1 (Wee1 Kinase-Inhibitory Effect)
(1) Purification of Wee1 Kinase:
A cDNA of Wee1 kinase with glutathion-S-transferase (GST) fused at the amino terminal thereof was inserted into a baculovirus expression vector to construct a recombinant baculovirus, with which cells of an insect cell line Sf9 were infected for high expression therein. The infected cells were collected and solubilized, and then the GST-tagged Wee1 kinase protein was adsorbed by a glutathion column, and eluted from the column with glutathion, and the active fraction was desalted in a desalting column to give a purified enzyme.
(2) Determination of Wee1 Kinase Activity:
In determination of the Wee1 kinase activity, a synthetic peptide, Poly(Lys,Tyr) Hydrobromide (Lys:Tyr (4:1)) bought from Sigma was used as the substrate.
The amount of the reaction liquid was 21.1 μL; and the composition of the reaction buffer was 50 mM Tris-HCl buffer (pH 7.4)/10 mM magnesium chloride/1 mM dithiothreitol. The purified Wee1 kinase, 2.5 μg of the substrate peptide, 10 μM of non-labeled adenosine triphosphate (ATP) and 1 μCi of [γ-^33P]-labeled ATP (2500 Ci/mmol or more) were added to it, and reacted at 30° C. for 30 minutes. Next, 10 μL of 350 mM phosphate buffer was added to the reaction system to stop the reaction. The substrate peptide was adsorbed by a P81 paper filter 96-well plate, then washed a few times with 130 mM phosphate buffer, and its radioactivity was counted with a liquid scintillation counter. The [γ-^33P]-labeled ATP was bought from Amersham Bioscience.
To add a test compound to the reaction system, the compound was diluted with dimethyl sulfoxide (DMSO) to prepare a series of dilutions. 1.1 μL of each dilution was added to the reaction system. As a control, 1.1 μL of DMSO was added to the reaction system.

[1] = tested on: Cdc2 (Cdk1) tyrosine 15 phosphorylation in NCI-H1299 cells; experiment: Cdc2 (Cdk1) tyrosine 15-phosphorylation-inhibitory effect in NCI-H1299 cells, camptothecin-treated (ELISA); assay type: cell-based; details: Homo sapiens, 200 nM camptothecin 16 hours, then test compound with nocodazole 8 hours, read-out: Cdc2-Y15 Phosphorylation-Inhibitory Effect (H1299, +camptothecin) (EC50)
Source text: Pharmacological Test 2 (Method of Determining Drug Potency with Cells (Cdc2 (Cdk1) Tyrosine 15-Phosphorylation-Inhibitory Effect))
Fetal bovine serum (FBS) was gotten from Morgate; media RPMI1640 and DMEM were from Invitrogen; camptothecin was from Sigma; gemcitabine was from Nippon Eli Lilly; nocodazole and protease inhibitor cocktail were from Sigma; rabbit anti-Cdc2 antibody and mouse anti-Cdc2 antibody were from Santa Cruz Biotechnology; rabbit anti-tyrosine 15-phosphorylated Cdc2 antibody and horseradish peroxidase-labeled anti-mouse IgG antibody were from Cell Signaling Technology; sure blue reserve TMB peroxidase substrate was from Kirkegaard and Perry Laboratories.
Human non-small cell lung cancer cells (NCI-H1299) and human colon cancer cells (WiDr) were gotten from American Type Culture Collection (ATCC).
In the method of using NCI-H1299 cells, the cells were suspended in a medium of 10% FBS-added RPMI1640, and the cell suspension was applied to a 96-well Nunclondelta-processed plastic plate (bought from Nunc), in an amount of 2000 cells/100 μL/well, in which the cells were incubated overnight in 5% CO2-95% air at 37° C. Camptothecin was dissolved in dimethyl sulfoxide (DMSO), and diluted with a medium of 10% FBS-added RPMI1640, and then this was applied to the plate on which the cells had been previously sowed, in an amount of 50 μL/well in such a manner that the final concentration of camptothecin could be 200 nM. Then, the cells were incubated for 16 hours at 37° C. in 5% CO2-95% air. A test compound was stepwise diluted with DMSO, then diluted with 4000 nM nocodazole-containing, 10% FBS-added RPMI1640, and applied to the plate on which the camptothecin-treated cells had been sowed, in an amount of 50 μL/well. […] Cdc2 was determined through ELISA as follows: A rabbit anti-Cdc2 antibody solution, which had been diluted 200-fold with 50 mM carbonate-bicarbonate buffer (pH 9.6), was applied to a 96-well maxisorpimmuno plate (bought from Nunc), in an amount of 50 μL/well, and statically kept overnight at 4° C. so as to fix the antibody on the plate. […]

Row | SMILES | IC50 (Wee1 kinase) [nM] | EC50 [1] [nM]
1 | C=CCn1c(=O)c2cnc(Nc3ccc(N4CCN(C)CC4)cc3)nc2n1-c1cccc(-n2ccccc2=O)n1 [Example 1, 6′-(2-allyl-6-{[4-(4-methylpiperazin-1-yl)phenyl]amino}-3-oxo-2,3-dihydro-1H-pyrazolo[3,4-d]pyrimidin-1-yl)-2H-1,2′-bipyridin-2-one] | 16 | 190
2 | C=CCn1c(=O)c2cnc(Nc3ccc(N4CCN(C)CC4)cc3)nc2n1-c1cccc(-n2cc(F)ccc2=O)n1 [Example 5, 6′-(2-allyl-6-{[4-(4-methylpiperazin-1-yl)phenyl]amino}-3-oxo-2,3-dihydro-1H-pyrazolo[3,4-d]pyrimidin-1-yl)-5-fluoro-2H-1,2′-bipyridin-2-one] | 18 | 260
3 | C=CCn1c(=O)c2cnc(Nc3ccc4c(c3)CN(C)CC4)nc2n1-c1cccc(-n2ccccc2=O)n1 [Example 30, 6′-{2-Allyl-6-[(2-methyl-1,2,3,4-tetrahydroisoquinolin-7-yl)amino]-3-oxo-2,3-dihydro-1H-pyrazolo[3,4-d]pyrimidin-1-yl}-2H-1,2′-bipyridin-2-one] | 17.9 | 180
